Reference: ChEMBL document CHEMBL1145787, “Synthesis and structure-activity relationship of N-substituted 4-arylsulfonylpiperidine-4-hydroxamic acids as novel, orally active matrix metalloproteinase inhibitors for the treatment of osteoarthritis” (J Med Chem, 2003)

What was measured:
[1] = In vivo inhibitory activity against Matrix metalloprotease enzyme by dialysis implant assay, value is relative to activity of CGS-27023 (43+/-2) at 25 mg/kg. po; type: functional
[2] = target: Matrix metalloproteinase-9 (Homo sapiens, UniProt P14780); assay: In vitro inhibitory activity against matrix metalloprotease-9.
Sequence of Matrix metalloproteinase-9 (P14780 whole entry): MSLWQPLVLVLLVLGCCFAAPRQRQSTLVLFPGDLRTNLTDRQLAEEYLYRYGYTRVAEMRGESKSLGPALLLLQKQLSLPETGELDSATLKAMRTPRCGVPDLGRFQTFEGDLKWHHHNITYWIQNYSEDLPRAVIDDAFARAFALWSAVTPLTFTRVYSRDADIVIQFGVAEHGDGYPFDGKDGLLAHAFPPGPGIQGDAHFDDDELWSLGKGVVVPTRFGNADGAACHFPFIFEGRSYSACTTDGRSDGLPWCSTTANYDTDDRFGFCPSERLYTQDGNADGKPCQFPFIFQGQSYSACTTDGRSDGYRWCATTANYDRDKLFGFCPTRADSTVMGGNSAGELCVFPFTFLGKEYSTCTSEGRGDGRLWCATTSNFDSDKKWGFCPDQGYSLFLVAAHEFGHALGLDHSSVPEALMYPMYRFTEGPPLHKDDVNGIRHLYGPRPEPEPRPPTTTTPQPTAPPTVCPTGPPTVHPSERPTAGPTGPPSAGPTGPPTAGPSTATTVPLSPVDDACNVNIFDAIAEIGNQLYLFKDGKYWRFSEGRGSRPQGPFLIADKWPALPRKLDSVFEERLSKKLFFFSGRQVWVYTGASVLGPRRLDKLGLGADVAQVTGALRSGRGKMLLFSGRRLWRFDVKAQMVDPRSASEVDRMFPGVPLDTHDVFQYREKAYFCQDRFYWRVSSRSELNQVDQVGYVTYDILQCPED

[3] = In vivo inhibition of Matrix metalloprotease enzyme by Sponge-wrapped cartilage assay, value is relative to activity of RS-130830 (40+/-2) at 10 mg/kg. po. bid; type: functional
Collagenase 3 = Collagenase 3 (Homo sapiens, UniProt P45452)

IC50 [2]: 10 nM
IC50 (Collagenase 3): 2 nM
Structure (SMILES): CCCCOc1ccc(S(=O)(=O)C2(C(=O)NO)CCN(C)CC2)cc1
inhibition in vivo at 25 mg/kg [1]: 64%
inhibition in vivo at 10 mg/kg [3]: 12%
